Test results as given in US20170226139A1, “CRYSTALLINE SALTS OF (Z)-O-OCTADEC-9-EN-1-YL O,O-DIHYDROGEN PHOSPHOROTHIOATE” (priority 2013, published 2017).
≈ marks a conversion by molar mass, not a printed value.

How the values were obtained:
[1] = test system: female murine Animal Model of GI-ARS (TAI); experiment: Survival after total abdominal irradiation (TAI), murine model of GI-ARS (UTHSC, 2010); assay type: in vivo; details: UTHSC 2010 (TAI), 0.1 mg/kg, start +24, 15.0 Gy, non-GLP
Method: (§1) These Animal Model studies were all conducted using partial body irradiation (PBI) with tibial bone marrow sparing except the earliest study which was performed with Total Abdominal Irradiation (TAI). The male Rhesus macaque model was developed by MacVittie. The female inbred murine PBI GI-ARS Animal Model was developed by the inventors. […] Differences in radiation sensitivity by gender in rodent species are well appreciated. We are not aware of PBI GI-ARS models other than these that meet criteria required to conduct a prospective, blinded, controlled, randomized study of efficacy.

[2] = test system: male Rhesus macaque Animal Model of GI-ARS; experiment: Survival after partial body irradiation, male Rhesus macaque Animal Model of GI-ARS; assay type: in vivo
Method: Using a partial body irradiation (tibial sparing) animal model in the female C57BL/6 mice, we tested the survival advantages conferred by GMP Rx100.L-Lysine salt. As a result, when administered at 0.3 to 3 mg/kg/12 h×6 doses starting at +24 hours after exposure to 15.5 to 15.7 Gy from a ^137Cesium irradiator which otherwise reliably produces an LD70-90/10 (in 10 days, 70-90% mice die after irradiation), the mortality was reduced by 20% to 50%. When administered at 0.1 mg/kg/day×6 doses in a partial body irradiation Animal Model in 19 male Rhesus macaque, a 37% increase in survival at a normally LD70/34 dose of X-ray radiation was observed. By allometric scaling using body surface area, these lowest effective doses translate to 0.02 mg/kg/day and to 0.03 mg/kg/day in humans, respectively.
as §1

[3] = Solubility measurement by gravimetric method in various solvents; assay type: physicochemical; details: for solubility: thermodynamic from solid
Method: In addition, the Rx100 L-Lysate salt was further characterized under abbreviated polymorph evaluation. First, the solubility measurement by gravimetric method was performed. Briefly, excess amount of solid was slurried in various solvents at ambient conditions and elevated temperature (50° C.) for minimum of 24 hours. The slurry was centrifuged using a temperature controlled centrifuge and the supernatant was used for gravimetric method. Table 15 presents the solubility data measured using this gravimetric method in various solvents for the L-Lysine salt. In cases where the solvent dissolved all of the solid, the value is shown as “greater than”.

male Sprague Dawley rats = experiment: Central nervous system safety pharmacology, modified Irwin battery; assay type: in vivo; details: SC 1.81, 6.33 and 18.1 mg/kg; through 24 hours post-dose
Method: Four groups of male Sprague Dawley rats (n=8/group) were administered Rx100.lysine via subcutaneous injection at doses of 0 (10 mM histidine in sterile water for Injection, USP), 1.81, 6.33 and 18.1 mg/kg as the free acid. Animals were assessed pre-dose and through 24 hours post-dose for a variety of behavioral, neurological and autonomic responses using the modified Irwin battery of assessments. Dose formulation analyses were conducted and samples ranged from 99 to 104% of target. The only effect observed was a small (0.8 to 1.5 degrees C.) decrease in body temperature noted at 2-4 hours postdose.

physchem = details: thermodynamic from solid
[4] = UC Davis 2011, Rhesus (♂), 0.1 mg/kg (q24 × 6), start +4, 11.5 Gy, non-GLP
[5] = UC Davis 2011, Rhesus (♂), 0.1 mg/kg (q24 × 6), start +4, 11.5 Gy, non-GLP, vs vehicle
[6] = abbreviated polymorph screening

Q: With `CCCCCCCC/C=C\CCCCCCCCOP(O)(O)=S` [Rx100, (Z)—O-octadec-9-en-1-yl O,O-dihydrogen phosphorothioate] as the compound, how does the “Survival, Rx100 arm (survivors/animals)” value ([1]; single cell under Day 10/Day ≧30) read?
A: The value was 10/14.

Q: What about the “Survival advantage” value ([1]; single cell under Day 10/Day ≧30, vs vehicle) of the same compound?
A: Its value is 42%.

Q: And the “Survival Day 10, Rx100 arm (survivors/animals)” value [2, 4]?
A: The value was 2/9.

Q: What about the “Survival Day ≧30, Rx100 arm (survivors/animals)” value [2, 4] of the same compound?
A: Its value is 6/9.

Q: And the “Survival Advantage Day 10” value [2, 5]?
A: The value was 8%.

Q: What about the “Survival Advantage Day ≧30” value [2, 5] of the same compound?
A: The value was 37%.

Q: Which “Solubility, gravimetric method” value ([3]; EtOH:water (v/v) [1:1], 25° C.) does the source give for `CCCCCCCC/C=C\CCCCCCCCOP(O)(O)=S` [Rx100.L-Lysine, (Z)—O-octadec-9-en-1-yl O,O-dihydrogen phosphorothioate] here?
A: Its value is “Gelled”.

Q: What about the “Solubility, gravimetric method” value ([3]; EtOH:water (v/v) [7:3], 25° C.) of the same compound?
A: The value was “Gelled”.

Q: What about the “Solubility, gravimetric method” value ([3]; EtOH:water (v/v) [7:3], 50° C.) of the same compound?
A: Its value is “Gelled”.

Q: What about the “Solubility, gravimetric method” value ([3]; IPA:water (v/v) [7:3], 25° C.) of the same compound?
A: The value was “Gelled”.

Q: What about the “Solubility, gravimetric method” value ([3]; IPA:water (v/v) [7:3], 50° C.) of the same compound?
A: Its value is “Gelled”.

Q: What about the “Solubility, gravimetric method” value ([3]; MeOH:water (v/v) [1:1], 25° C.) of the same compound?
A: The value was “Gelled”.

Q: And the “Solubility, gravimetric method” value ([3]; MeOH:water (v/v) [7:3], 50° C.)?
A: Its value is “Gelled”.

Q: What about the “Solubility in most aqueous solvent systems” value [3, 6] of the same compound?
A: Its value is “moderate to high solubility”.

Q: What about the “Solubility in organic systems” value [3, 6] of the same compound?
A: The value was “limited solubility”.

Q: What about the solubility ([3]; aqueous with cosolvent or surfactant or cyclodextrin, EtOH:water (v/v) [1:1], 50° C.) of the same compound?
A: The solubility was > 68 mg/mL.

Q: And the solubility ([3]; aqueous with cosolvent or surfactant or cyclodextrin, EtOH:water (v/v) [3:7], 25° C.)?
A: Its solubility is > 40 mg/mL.

Q: And the solubility ([3]; aqueous with cosolvent or surfactant or cyclodextrin, EtOH:water (v/v) [3:7], 50° C.)?
A: Its solubility is > 84 mg/mL.

Q: And the solubility ([3]; aqueous with cosolvent or surfactant or cyclodextrin, IPA:water (v/v) [1:1], 25° C.)?
A: The solubility was > 40 mg/mL.

Q: And the solubility ([3]; aqueous with cosolvent or surfactant or cyclodextrin, IPA:water (v/v) [1:1], 50° C.)?
A: Its solubility is > 86 mg/mL.

Q: What about the solubility ([3]; aqueous with cosolvent or surfactant or cyclodextrin, IPA:water (v/v) [3:7], 25° C.) of the same compound?
A: The solubility was > 46 mg/mL.

Q: And the solubility ([3]; aqueous with cosolvent or surfactant or cyclodextrin, IPA:water (v/v) [3:7], 50° C.)?
A: Its solubility is > 70 mg/mL.

Q: And the solubility ([3]; aqueous with cosolvent or surfactant or cyclodextrin, MeOH:water (v/v) [1:1], 50° C.)?
A: The solubility was > 80 mg/mL.

Q: And the solubility ([3]; aqueous with cosolvent or surfactant or cyclodextrin, MeOH:water (v/v) [3:7], 25° C.)?
A: Its solubility is > 48 mg/mL.

Q: And the solubility ([3]; aqueous with cosolvent or surfactant or cyclodextrin, MeOH:water (v/v) [3:7], 50° C.)?
A: The solubility was > 86 mg/mL.

Q: What about the solubility ([3]; aqueous with cosolvent or surfactant or cyclodextrin, MeOH:water (v/v) [7:3], 25° C.) of the same compound?
A: The solubility was 20 mg/mL (≈ 54.9 mM).

Q: What about the solubility ([3]; organic solvent or mixture, EtOH, 50° C.) of the same compound?
A: Its solubility is 3 mg/mL (≈ 8.23 mM).

Q: And the solubility ([3]; organic solvent or mixture, Heptane, 50° C.)?
A: The solubility was 3 mg/mL (≈ 8.23 mM).

Q: What about the solubility ([3]; organic solvent or mixture, IPA, 50° C.) of the same compound?
A: Its solubility is 5 mg/mL (≈ 13.7 mM).

Q: What about the solubility ([3]; organic solvent or mixture, MTBE, 50° C.) of the same compound?
A: Its solubility is 4 mg/mL (≈ 11 mM).

Q: What about the solubility ([3]; organic solvent or mixture, MeOH, 50° C.) of the same compound?
A: The solubility was 4 mg/mL (≈ 11 mM).

Q: And the solubility ([3]; Water, 25° C.)?
A: The solubility was > 48 mg/mL.

Q: And the solubility ([3]; Water, 50° C.)?
A: Its solubility is > 76 mg/mL.

Q: And the “other parameters of the modified Irwin battery” value (male Sprague Dawley rats)?
A: Its value is “No other effects”.

Q: And the solubility (physchem; simulated formulation solvent, aqueous with cosolvent or surfactant or cyclodextrin)?
A: Its solubility is > 43 mg/mL.

Q: What about the solubility (physchem; water) of the same compound?
A: The solubility was > 48 mg/mL.

Q: What about the increase in survival ([2]; 0.1 mg/kg/day×6 doses, 19 male Rhesus macaque, normally LD70/34 dose of X-ray radiation) of the same compound?
A: Its increase in survival is 37%.
